Assay results from the NIST ThermoML archive (doi:10.1016/j.jct.2016.10.023).

Test: xn = mol fraction of the nth substance listed
Settings: Constant-volume piezometry

CCCCC [pentane] + CCCO
Settings | mass density [kg/m3]
433.15 K, 35839 kPa, Liquid, x1 = 0.5 | 609.23
433.15 K, 36095 kPa, Liquid, x1 = 0.2 | 661.31
433.15 K, 41420 kPa, Liquid, x1 = 0.8 | 572.89
437.15 K, 2040 kPa, Gas, x1 = 0.8 | 58.65
438.15 K, 1323 kPa, Gas, x1 = 0.5 | 30.1
438.15 K, 2052 kPa, Gas, x1 = 0.8 | 58.65
438.15 K, 2515 kPa, Liquid, x1 = 0.5 | 509.1
440.15 K, 2121 kPa, Liquid, x1 = 0.2 | 584.41
443.15 K, 781 kPa, Gas, x1 = 0.5 | 15.58
443.15 K, 1062 kPa, Gas, x1 = 0.8 | 22.61
443.15 K, 1353 kPa, Gas, x1 = 0.5 | 30.1
443.15 K, 1529 kPa, Gas, x1 = 0.8 | 36.83
443.15 K, 2108 kPa, Gas, x1 = 0.8 | 58.64
443.15 K, 3419 kPa, Liquid, x1 = 0.2 | 584.3
443.15 K, 4067 kPa, Liquid, x1 = 0.5 | 508.96
443.15 K, 5776 kPa, Liquid, x1 = 0.5 | 521.85
443.15 K, 6119 kPa, Liquid, x1 = 0.8 | 468.84
443.15 K, 7864 kPa, Liquid, x1 = 0.2 | 598.01
443.15 K, 11620 kPa, Liquid, x1 = 0.8 | 498.47
443.15 K, 13293 kPa, Liquid, x1 = 0.5 | 550.88
443.15 K, 15549 kPa, Liquid, x1 = 0.2 | 617.55
443.15 K, 19116 kPa, Liquid, x1 = 0.8 | 523.16
443.15 K, 24271 kPa, Liquid, x1 = 0.5 | 577.21
443.15 K, 29321 kPa, Liquid, x1 = 0.2 | 638.71
443.15 K, 31113 kPa, Liquid, x1 = 0.5 | 589.73
443.15 K, 32587 kPa, Liquid, x1 = 0.8 | 550.89
443.15 K, 37375 kPa, Liquid, x1 = 0.5 | 600.38
443.15 K, 43094 kPa, Liquid, x1 = 0.2 | 660.83
446.15 K, 2393 kPa, Gas, x1 = 0.8 | 74.06
447.15 K, 1740 kPa, Gas, x1 = 0.5 | 40.63
448.15 K, 1748 kPa, Gas, x1 = 0.5 | 40.63
448.15 K, 2548 kPa, Liquid, x1 = 0.9 | 408.95
448.15 K, 2624 kPa, Liquid, x1 = 0.8 | 419.92
449.15 K, 2796 kPa, Liquid, x1 = 0.8 | 419.9
451.15 K, 2529 kPa, Gas, x1 = 0.9 | 83.67
452.15 K, 2545 kPa, Gas, x1 = 0.9 | 83.66
453.15 K, 804 kPa, Gas, x1 = 0.5 | 15.57
453.15 K, 1101 kPa, Gas, x1 = 0.8 | 22.6
453.15 K, 1255 kPa, Gas, x1 = 0.2 | 25.01
453.15 K, 1405 kPa, Gas, x1 = 0.5 | 30.08
453.15 K, 1584 kPa, Gas, x1 = 0.8 | 36.81
453.15 K, 1789 kPa, Gas, x1 = 0.5 | 40.62
453.15 K, 2048 kPa, Gas, x1 = 0.5 | 51.26
453.15 K, 2206 kPa, Gas, x1 = 0.8 | 58.61
453.15 K, 2494 kPa, Gas, x1 = 0.8 | 74.04
453.15 K, 2562 kPa, Gas, x1 = 0.9 | 83.66
453.15 K, 3375 kPa, Liquid, x1 = 0.9 | 408.84
453.15 K, 3511 kPa, Liquid, x1 = 0.8 | 419.81
453.15 K, 7204 kPa, Liquid, x1 = 0.5 | 508.66
453.15 K, 7807 kPa, Liquid, x1 = 0.2 | 583.93
453.15 K, 8728 kPa, Liquid, x1 = 0.8 | 468.58
453.15 K, 9366 kPa, Liquid, x1 = 0.5 | 521.54
453.15 K, 12785 kPa, Liquid, x1 = 0.2 | 597.62
453.15 K, 14688 kPa, Liquid, x1 = 0.8 | 498.18
453.15 K, 17282 kPa, Liquid, x1 = 0.5 | 550.54
453.15 K, 21030 kPa, Liquid, x1 = 0.2 | 617.14
453.15 K, 22882 kPa, Liquid, x1 = 0.8 | 522.84
453.15 K, 28840 kPa, Liquid, x1 = 0.5 | 576.84
453.15 K, 34516 kPa, Liquid, x1 = 0.2 | 638.29
453.15 K, 37125 kPa, Liquid, x1 = 0.8 | 550.54
455.15 K, 2058 kPa, Gas, x1 = 0.5 | 51.26
455.15 K, 2617 kPa, Liquid, x1 = 0.5 | 469.97
459.15 K, 2107 kPa, Liquid, x1 = 0.2 | 549.17
459.25 K, 2109 kPa, Liquid, x1 = 0.2 | 549.17
460.15 K, 2449 kPa, Liquid, x1 = 0.2 | 549.14
461.15 K, 3036 kPa, Gas, x1 = 0.8 | 106.72
463.15 K, 825 kPa, Gas, x1 = 0.5 | 15.56
463.15 K, 1134 kPa, Gas, x1 = 0.8 | 22.59
463.15 K, 1296 kPa, Gas, x1 = 0.2 | 25
463.15 K, 1450 kPa, Gas, x1 = 0.5 | 30.07
463.15 K, 1641 kPa, Gas, x1 = 0.8 | 36.79
463.15 K, 1866 kPa, Gas, x1 = 0.5 | 40.6
463.15 K, 2150 kPa, Gas, x1 = 0.5 | 51.24
463.15 K, 2308 kPa, Gas, x1 = 0.8 | 58.58
463.15 K, 2637 kPa, Gas, x1 = 0.8 | 74
463.15 K, 2727 kPa, Gas, x1 = 0.9 | 83.62
463.15 K, 3075 kPa, Liquid, x1 = 0.5 | 452.77
463.15 K, 3080 kPa, Gas, x1 = 0.8 | 106.71
463.15 K, 3117 kPa, Liquid, x1 = 0.9 | 355.23
463.15 K, 3523 kPa, Liquid, x1 = 0.2 | 549.04
463.15 K, 3571 kPa, Liquid, x1 = 0.5 | 459.88
463.15 K, 4516 kPa, Liquid, x1 = 0.5 | 469.76
463.15 K, 5048 kPa, Liquid, x1 = 0.9 | 408.62
463.15 K, 5052 kPa, Liquid, x1 = 0.9 | 408.62
463.15 K, 5310 kPa, Liquid, x1 = 0.8 | 419.58
463.15 K, 10451 kPa, Liquid, x1 = 0.5 | 508.36
463.15 K, 11344 kPa, Liquid, x1 = 0.8 | 468.31
463.15 K, 12276 kPa, Liquid, x1 = 0.2 | 583.56
463.15 K, 12696 kPa, Liquid, x1 = 0.5 | 521.23
463.15 K, 17686 kPa, Liquid, x1 = 0.2 | 597.23
463.15 K, 17835 kPa, Liquid, x1 = 0.8 | 497.88
463.15 K, 20989 kPa, Liquid, x1 = 0.5 | 550.21
463.15 K, 26488 kPa, Liquid, x1 = 0.2 | 616.73
463.15 K, 26685 kPa, Liquid, x1 = 0.8 | 522.53
463.15 K, 33534 kPa, Liquid, x1 = 0.5 | 576.47
463.15 K, 41577 kPa, Liquid, x1 = 0.8 | 550.2
463.15 K, 41859 kPa, Liquid, x1 = 0.2 | 637.82
464.15 K, 3225 kPa, Liquid, x1 = 0.9 | 355.21
465.15 K, 3139 kPa, Gas, x1 = 0.9 | 123.69
466.15 K, 3167 kPa, Gas, x1 = 0.9 | 123.69
468.15 K, 2722 kPa, Gas, x1 = 0.5 | 72.79
468.15 K, 3224 kPa, Gas, x1 = 0.9 | 123.67
468.15 K, 3337 kPa, Liquid, x1 = 0.5 | 442.3
468.15 K, 3480 kPa, Liquid, x1 = 0.8 | 346.36
468.15 K, 3796 kPa, Liquid, x1 = 0.8 | 362.98
469.15 K, 3297 kPa, Gas, x1 = 0.9 | 134.47
469.15 K, 3585 kPa, Liquid, x1 = 0.8 | 346.34
470.15 K, 2757 kPa, Gas, x1 = 0.5 | 72.78
470.15 K, 3441 kPa, Liquid, x1 = 0.9 | 310.06
470.15 K, 3577 kPa, Liquid, x1 = 0.9 | 332
473.15 K, 846 kPa, Gas, x1 = 0.5 | 15.56
473.15 K, 1166 kPa, Gas, x1 = 0.8 | 22.58
473.15 K, 1339 kPa, Gas, x1 = 0.2 | 24.99
473.15 K, 1500 kPa, Gas, x1 = 0.5 | 30.05
473.15 K, 1696 kPa, Gas, x1 = 0.8 | 36.78
473.15 K, 1943 kPa, Gas, x1 = 0.5 | 40.58
473.15 K, 2238 kPa, Gas, x1 = 0.5 | 51.21
473.15 K, 2408 kPa, Gas, x1 = 0.8 | 58.55
473.15 K, 2703 kPa, Gas, x1 = 0.5 | 67.68
473.15 K, 2775 kPa, Gas, x1 = 0.8 | 73.97
473.15 K, 2808 kPa, Gas, x1 = 0.5 | 72.77
473.15 K, 2888 kPa, Gas, x1 = 0.9 | 83.58
473.15 K, 3309 kPa, Gas, x1 = 0.8 | 106.65
473.15 K, 3339 kPa, Liquid, x1 = 0.5 | 418.35
473.15 K, 3349 kPa, Gas, x1 = 0.9 | 123.64
473.15 K, 3414 kPa, Gas, x1 = 0.9 | 134.44
473.15 K, 3511 kPa, Gas, x1 = 0.9 | 164.35
473.15 K, 3553 kPa, Gas, x1 = 0.9 | 189.91
473.15 K, 3564 kPa, Gas, x1 = 0.9 | 202.87

Liquid
Settings | mass density [kg/m3]
438.95 K, x1 = 0.2 | 584.46
446.85 K, x1 = 0.8 | 419.95
447.55 K, x1 = 0.9 | 408.96
454.85 K, x1 = 0.5 | 469.97
458.15 K, x1 = 0.2 | 549.2
462.15 K, x1 = 0.5 | 452.82
462.85 K, x1 = 0.9 | 355.24
463.55 K, x1 = 0.8 | 363.07
466.15 K, x1 = 0.5 | 442.34
467.15 K, x1 = 0.8 | 346.37
467.15 K, x1 = 0.9 | 334.99
470.15 K, x1 = 0.8 | 334.76
470.15 K, x1 = 0.9 | 313.16
470.85 K, x1 = 0.9 | 302.48
471.25 K, x1 = 0.9 | 282.74
471.95 K, x1 = 0.9 | 244.86
472.05 K, x1 = 0.9 | 241.54
472.15 K, x1 = 0.9 | 237.12
472.65 K, x1 = 0.8 | 316.17
